Data: US20080064071A1, “Zwitterionic detergents for the storage and use of DNA polymerases” (priority 2006, published 2008)
Where “and” joins values, the source holds several entries; their conditions need not be identical. Identical values can stand only once.

Columns and labels:
[1] = system: Pfu fusion DNA polymerase; assay: SYBR Green QPCR with Pfu fusion DNA polymerase; format: biochemical, Pyrococcus furiosus; settings: for QPCR amplification efficiency, total fluorescence and Ct values versus 0.1% Triton X100 (FIG. 7) / amplification efficiency, total fluorescence and Ct values (FIG. 8): 0.5% detergent; for amplification efficiency, total fluorescence and Ct values (FIG. 8): aldolase and GDH gene targets; for Effective range, concentration of each detergent in combination, SYBR Green QPCR: combination CHAPS (0.1%) + Anz. 3-10 (0.02-0.15%); for Optimal range, concentration of each detergent in combination, SYBR Green QPCR: combination CHAPS (0.1%) + Anz. 3-10 (0.05-0.15%); for Effective range, Detergent 1 (single detergent), SYBR Green QPCR / Optimal range, Detergent 1 (single detergent), SYBR Green QPCR: detergent alone
Method: QPCR reactions contained DNA or cDNA template, varying amounts of primer (see Table 3 below), 300 uM each dNTP, 4 ng/ul exo Pfu fusion, 6 ng/ul hot start IgG, 0.4ng/ul single-stranded DNA-binding protein, 1× Pfu fusion DF-buffer II (pH 9), 4% DMSO, and 8% glycerol. QPCR reactions were supplemented with 0.1% Triton X100 or zwitterionic detergent, and with 0.5× SYBR Green (Molecular Probes S-7567). Reactions were cycled on the MX3000P Real-Time PCR System using the following conditions: (1 cycle) 95° C. 5 min; (40 cycles) 95° C. 10 sec, 60° C. 30 sec.

[2] = system: Pfu fusion DNA polymerase; assay: Accelerated stability study of Pfu fusion DNA polymerase in storage buffer, residual activity by 0.9 kb PCR; format: biochemical, Pyrococcus furiosus; settings: detergent in storage buffer
Method: Accelerated stability studies were performed to illustrate the stabilizing effects of zwitterionic detergents. Pfu fusion DNA polymerase was purified in the absence of detergents and then diluted to 28 ng/ul in storage buffer lacking detergent or storage buffers containing either conventional non-ionic detergent (0.1% Igepal/0.1% Triton X100) or various zwitterionic detergents. Protein samples were stored at −20° C. or were heated at 95° C. for varying lengths of time. Residual activity was assayed by amplifying a 0.9 kb genomic target in PCR in fusion DF-buffer supplemented with either 0.1% Triton X100 or 0.1% CHAPSO/0.1% Anzergent 3-12.

[3] = molecular target: T1, Pfu DNA polymerase (Pyrococcus furiosus, UniProt P61875); assay: Endpoint PCR with Pfu DNA polymerase, detergent/surfactant added to detergent-free PCR buffer; format: biochemical; settings: for product yields on addition of zwitterionic detergent to PCR buffer (FIG. 5): versus buffer lacking detergent, which failed to generate product; for effectiveness relative to CHAPS and Anzergent 3-10 (FIG. 5): CHAPSO 0.05-0.2%, Anzergent 3-12 0.1-0.2%, in PCR buffer
T1 sequence (P61875 1-775): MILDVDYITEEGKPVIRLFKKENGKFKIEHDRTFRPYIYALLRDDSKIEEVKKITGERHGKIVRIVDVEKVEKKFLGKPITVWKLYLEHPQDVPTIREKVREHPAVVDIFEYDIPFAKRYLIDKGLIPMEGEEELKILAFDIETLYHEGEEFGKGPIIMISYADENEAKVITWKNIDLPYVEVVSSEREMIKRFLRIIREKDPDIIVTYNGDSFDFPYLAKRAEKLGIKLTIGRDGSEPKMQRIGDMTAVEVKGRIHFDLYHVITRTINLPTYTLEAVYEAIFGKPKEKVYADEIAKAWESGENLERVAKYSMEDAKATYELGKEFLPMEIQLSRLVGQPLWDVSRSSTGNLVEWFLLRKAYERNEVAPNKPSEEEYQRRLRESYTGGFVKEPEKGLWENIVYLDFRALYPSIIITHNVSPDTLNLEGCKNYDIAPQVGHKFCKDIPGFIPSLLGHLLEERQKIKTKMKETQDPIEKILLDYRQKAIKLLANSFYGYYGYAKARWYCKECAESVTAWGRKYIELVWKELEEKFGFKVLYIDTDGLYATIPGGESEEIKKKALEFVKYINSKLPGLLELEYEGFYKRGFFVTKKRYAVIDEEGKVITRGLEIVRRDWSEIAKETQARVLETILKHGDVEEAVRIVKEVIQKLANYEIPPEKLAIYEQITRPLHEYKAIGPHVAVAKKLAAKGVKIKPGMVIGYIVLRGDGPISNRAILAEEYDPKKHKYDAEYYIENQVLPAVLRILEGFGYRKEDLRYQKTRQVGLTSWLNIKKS
Method: Pfu (exo+ and exo−) fusion DNA polymerase (e.g., as described in U.S. patent application Ser. No.: 11/488,535, filed Jul. 17, 2006, and herein incorporated by reference in its entirety), cPfu DNA polymerase (Stratagene catalog #600154), and PEF were purified using standard production protocols (no detergent present), except that non-ionic detergents were omitted from the final storage buffers. Enzymes were stored at −20° C. in 50 mM Tris-HCl (pH 8.2), 0.1 mM EDTA, 1 mM DTT, and 50% glycerol. DNA polymerase storage buffers were additionally supplemented with one or more zwitterionic detergents, in percentages (v/v) ranging from 0.05% to 0.5%.
PCR reaction buffers were prepared without non-ionic detergents (“DF buffer”, detergent-free buffer). For example, 1× cPfu DF-buffer contains 10 mM KCl, 10 mM (NH4)2SO4, 20 mM Tris HCl (pH 8.8), 2 mM MgSO4, and 100 ug/ml BSA. Detergent-free versions of Pfu fusion buffers were also prepared, and consisted of: 40 mM Tris-SO4 (pH 10), 15 mM K2SO4, 8 mM (NH4)2SO4, 2 mM MgSO4 (1× Pfu fusion DF-buffer I) or 30 mM Tris-SO4 (pH 10), 40 mM K2SO4, 1.5 mM (NH4)2SO4, 2 mM MgSO4 (1× Pfu fusion DF-buffer II).
PCR reaction buffers were supplemented with 0.1% Triton X100 (non-ionic detergent) or with one or more zwitterionic detergents or non-detergent surfactants. For example, zwitterionic detergents CHAPS, CHAPSO, 3-10, and 3-12 were obtained from AnaTrace, Inc. (Maumee, Ohio) and added to DF-buffers in percentages (v/v) ranging from 0.05% to 0.5%. The non-detergent surfactant, Surfynol 465, was purchased from Air Products and used in a similar fashion.
For the 0.9 kb and 6 kb systems, PCR reactions (50 ul) were conducted with 40 ng cPfu DNA polymerase in IX cPfu DF-buffer or with 28 ng or 224 ng Pfu fusion DNA polymerase in 1× Pfu fusion DF-buffer I or DF-buffer II, respectively. PCR reactions also contained 2 U/50 ul Pyrococcus furiosus dUTPase (PEF), 100 ng of human genomic DNA, 250 uM each dNTP, and 100 ng of each primer. For the 9 kb system, PCR reactions (50 ul) consisted of 80 ng Pfu, 1.5× cPfu DF-buffer, 2U Pyrococcus furiosus dUTPase (PEF), 200 ng of human genomic DNA, 500 uM each dNTP, and 200 ng of each primer. PCR reaction buffers were supplemented with 0.1% Triton X100 or with zwitterionic detergent(s).

[4] = system: Pfu and Pfu fusion DNA polymerase; assay: Endpoint PCR, enhancing detergents and detergent combinations (Table 2); format: biochemical, Pyrococcus furiosus; settings: for Effective range, Detergent 1 (single detergent) / Optimal range, Detergent 1 (single detergent): endpoint PCR, detergent alone
[5] = system: Pfu fusion DNA polymerase; assay: Endpoint PCR with Pfu fusion DNA polymerase, detergent/surfactant added to detergent-free PCR buffer; format: biochemical, Pyrococcus furiosus; settings: for PCR product with detergent alone (FIG. 3) / PCR amplification with detergent alone (FIG. 2): 0.05% of the individual detergent; for detergent concentration at which amplifications generated product yields (FIG. 1): individual detergent in fusion PCR buffer, genomic DNA targets, no product in absence of detergent
[6] = molecular target: Taq DNA polymerase (Thermus aquaticus, UniProt P19821); settings: disclosed in U.S. Pat. No. 6,127,155; cited from earlier work
[7] = combination CHAPS (0.05%) + Anz. 3-12 (0.05-0.3%)
[8] = combination CHAPS (0.05%) + Anz. 3-12 (0.05-0.5%)
[9] = combination CHAPS (0.05-0.5%) + CHAPSO (0.05-0.3%)
[10] = combination CHAPS (0.1%) + Anz. 3-12 (0.05-0.5%)
[11] = combination CHAPS (0.05, 0.1%) + Anz. 3-10 (0.1-0.5%)
[12] = combination CHAPSO (0.1%) + Anz. 3-10 (0.05-0.4%)
[13] = combination CHAPSO (0.1%) + Anz. 3-10 (0.05-0.5%)

Taq DNA polymerase, sequence (P19821 whole entry): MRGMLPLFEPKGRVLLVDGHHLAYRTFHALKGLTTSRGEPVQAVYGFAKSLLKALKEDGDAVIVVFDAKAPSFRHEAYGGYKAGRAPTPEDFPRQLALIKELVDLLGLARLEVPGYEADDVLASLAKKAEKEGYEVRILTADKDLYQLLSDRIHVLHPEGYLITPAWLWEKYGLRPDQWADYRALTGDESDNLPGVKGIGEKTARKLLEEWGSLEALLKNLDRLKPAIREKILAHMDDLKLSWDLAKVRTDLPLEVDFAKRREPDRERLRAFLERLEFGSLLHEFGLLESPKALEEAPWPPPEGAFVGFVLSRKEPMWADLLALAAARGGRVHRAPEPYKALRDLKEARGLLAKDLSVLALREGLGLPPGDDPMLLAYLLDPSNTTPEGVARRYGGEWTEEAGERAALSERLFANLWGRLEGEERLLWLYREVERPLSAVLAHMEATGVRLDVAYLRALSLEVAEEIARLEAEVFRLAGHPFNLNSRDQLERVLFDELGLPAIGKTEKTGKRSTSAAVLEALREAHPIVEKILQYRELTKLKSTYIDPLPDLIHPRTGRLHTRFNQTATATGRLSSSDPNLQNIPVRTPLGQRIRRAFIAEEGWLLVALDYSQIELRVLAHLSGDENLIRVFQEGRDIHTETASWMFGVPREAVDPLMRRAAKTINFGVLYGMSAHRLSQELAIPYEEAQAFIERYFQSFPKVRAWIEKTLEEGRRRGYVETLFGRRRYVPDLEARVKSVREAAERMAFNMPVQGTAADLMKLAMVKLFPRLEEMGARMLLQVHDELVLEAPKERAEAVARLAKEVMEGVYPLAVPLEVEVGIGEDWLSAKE

| Compound | QPCR amplification efficiency, total fluorescence and Ct values versus 0.1% Triton X100 (FIG. 7) [1] | amplification efficiency, total fluorescence and Ct values (FIG. 8) [1] | Effective range, concentration of each detergent in combination, SYBR Green QPCR [1] | Optimal range, concentration of each detergent in combination, SYBR Green QPCR [1] | Effective range, Detergent 1 (single detergent), SYBR Green QPCR [1] | Optimal range, Detergent 1 (single detergent), SYBR Green QPCR [1] | effect on stability of Pfu fusion DNA polymerase (FIG. 6) [2] | product yields on addition of zwitterionic detergent to PCR buffer (FIG. 5) [3] | Optimal range, concentration of each detergent in combination [4, 7] | Effective range, concentration of each detergent in combination [4, 8] | Effective range, concentration of each detergent in combination [4, 9] | Effective range, concentration of each detergent in combination [4, 10] | Optimal range, concentration of each detergent in combination [4, 10] | Effective range, Detergent 1 (single detergent) [4] | Optimal range, Detergent 1 (single detergent) [4] | PCR product with detergent alone (FIG. 3) [5] | detergent concentration at which amplifications generated product yields (FIG. 1) [5] | effectiveness relative to CHAPS and Anzergent 3-10 (FIG. 5) [3] | PCR amplification with detergent alone (FIG. 2) [5] | Optimal range, concentration of each detergent in combination [4, 12] | other results |
| --- | --- | --- | --- | --- | --- | --- | --- | --- | --- | --- | --- | --- | --- | --- | --- | --- | --- | --- | --- | --- | --- |
| C[C@H](CCC(=O)NCCC[N+](C)(C)CCCS(=O)(=O)[O-])[C@H]1CC[C@H]2[C@@H]3[C@H](O)C[C@@H]4C[C@H](O)CC[C@]4(C)[C@H]3C[C@H](O)[C@]12C [CHAPS] | comparable | favorable | CHAPS (0.1%) | CHAPS (0.1%) | CHAPS (0.1-0.5%) | CHAPS (0.5%) | enhance the stability | dramatically improved | CHAPS (0.05%) | CHAPS (0.05%) | CHAPS (0.05-0.5%) | CHAPS (0.1%) | CHAPS (0.1%) | CHAPS (0.2-0.8%) | CHAPS (0.2-0.4%) |  |  |  |  |  |  |
| CCCCCCCCCCCC[N+](C)(C)CCCS(=O)(=O)[O-] [Anzergent 3-12, n-Dodecyl-N,N-dimethyl-3-ammonio-1-propanesulfonate] |  |  |  |  | Anz. 3-12 (0.1-0.2%) | Anz. 3-12 (0.15-0.2%) | enhance the stability | dramatically improved | Anz. 3-12 (0.05-0.3%) | Anz. 3-12 (0.05-0.5%) |  | Anz. 3-12 (0.05-0.5%) | Anz. 3-12 (0.05-0.5%) | Anz. 3-12 (0.1-0.4%) | Anz. 3-12 (0.1-0.2%) | did not show observable levels of PCR product | 0.1-0.2% | somewhat more effective |  |  | Effective range, concentration of each detergent in combination ([4]; combination CHAPSO (0.05%, 0.1%) + Anz. 3-12 (0.05-0.5%)): Anz. 3-12 (0.05-0.5%) |
| CCCCCCCCCC[N+](C)(C)CCCS(=O)(=O)[O-] [Anzergent 3-10, n-Decyl-N,N-dimethyl-3-ammonio-1-propanesulfonate] |  |  | Anz. 3-10 (0.02-0.15%) | Anz. 3-10 (0.05-0.15%) | Anz. 3-10 (0.1-0.3%) | Anz. 3-10 (0.2%) |  | dramatically improved |  |  |  |  |  | Anz. 3-10 (0.4-0.8%) | Anz. 3-10 (0.4-0.8%) |  | 0.4-0.8% |  | little amplification | Anz. 3-10 (0.05-0.4%) | detergent concentration with favorable result on PCR amplification (FIG. 2) ([5]; individual detergent added to the reaction): 0.4% and 0.8%; Effective range, concentration of each detergent in combination [4, 11]: Anz. 3-10 (0.1-0.5%); Optimal range, concentration of each detergent in combination [4, 11]: Anz. 3-10 (0.1-0.5%); Effective range, concentration of each detergent in combination [4, 13]: Anz. 3-10 (0.05-0.5%) |
| C[C@H](CCC(=O)NCCC[N+](C)(C)CC(O)CS(=O)(=O)[O-])[C@H]1CC[C@H]2[C@@H]3[C@H](O)C[C@@H]4C[C@H](O)CC[C@]4(C)[C@H]3C[C@H](O)[C@]12C (some centres unmarked) [CHAPSO] | comparable | favorable |  |  | CHAPSO (0.1-0.75%) | CHAPSO (0.2-0.5%) | enhance the stability | dramatically improved |  |  | CHAPSO (0.05-0.3%) |  |  | CHAPSO (0.1-0.8%) | CHAPSO (0.15-0.35%) | did not show observable levels of PCR product | 0.15-0.3% | somewhat more effective | little amplification | CHAPSO (0.1%) | Effective range, concentration of each detergent in combination [4, 13]: CHAPSO (0.1%) |
| NP-40 |  |  |  |  |  |  |  |  |  |  |  |  |  |  |  |  |  |  |  |  | effect on Taq DNA polymerase [6]: stabilize |
